| melting point | Compound |
| --- | --- |
| 264 °C | Cn1ncnc1COc1nn2c(-c3cnccn3)nnc2cc1-c1ccccc1 [Example 2, 6-(2-Methyl-2H-1,2,4-triazol-3-ylmethoxy)-7-phenyl-3-(pyrazin-2-yl)-1,2,4-triazolo[4,3-b]pyridazine] |
| 255 °C | c1ccc(-c2cc3nnc(-c4cnccn4)n3nc2OCc2nc[nH]n2)cc1 [Example 3, 7-Phenyl-3-(pyrazin-2-yl)-6-(1H-1,2,4-triazol-3-ylmethoxy)-1,2,4-triazolo[4,3-b]pyridazine] |
| 221 to 223 °C | Cc1cc(-c2nnc3cc(C(C)(C)C)c(OCc4ncn(C)n4)nn23)no1 [Example 6, 7-t-Butyl-3-(5-methylisoxazol-3-yl)-6-(1-methyl-1.2 4-triazol-3-yl)methyloxy-1,2,4-triazolo[4,3-b]pyridazine] |
| 219 to 221 °C | Cc1cc(-c2nnc3cc(C(C)(C)C)c(OCc4cn(C)nn4)nn23)no1 [Example 7, 7-t-Butyl-3-(5-methylisoxazol-3-yl)-6-(1-methyl-1.2.3-triazol-4-yl)methyloxy-1,2,4-triazolo[4,3-b]pyridazine] |

Reference: patent US6444666B1, “Triazolopyridazine Derivatives for treating anxiety and enhancing cognition” (Merck Sharp & Dohme Ltd., priority 1997, dated 2002)
